For 6 molecules, IC50, Ki and EC90 results are on record in US20230157998A1, “Methods of Inhibiting SARS-CoV-2 Replication and Treating Corona Virus Disease 2019” (Pfizer Inc., priority 2020, published 2023).

The target of one assay is SARS-CoV-2 3CL protease (Severe acute respiratory syndrome coronavirus 2, UniProt P0DTD1). The assay can be described thus: biochemical. The settings on record: for IC50: 15 nM enzyme, 60 min at 23° C.; for Ki: fit to the Morrison equation.
A further assay has as its system SARS-CoV-2. The experiment in a line: Antiviral activity in HeLa-ACE2 cells (viral protein detection). The settings on record: Severe acute respiratory syndrome coronavirus 2, compound alone. Format: cell-based.

Regarding `CC(C)(C)C[C@H](NC(=O)[C@H]1CCCO1)C(=O)N[C@@H](C[C@@H]1CCNC1=O)C(=O)COC(=O)c1c(Cl)cccc1Cl` [(3S)-3-({4-methyl-N-[(2R)-tetrahydrofuran-2-ylcarbonyl]-L-leucyl}amino)-2-oxo-4-[(3S)-2-oxopyrrolidin-3-yl]butyl 2,6-dichlorobenzoate], at SARS-CoV-2 3CL protease, the IC50 (in general, the concentration needed to halve the response being measured) turned out to be 17 nM and affinity was put at a Ki of 2.71 nM. For `COc1cccc2[nH]c(C(=O)N[C@@H](CC(C)C)C(=O)N[C@@H](C[C@@H]3CCNC3=O)C(=O)COC(=O)C3CC3)cc12` [(3S)-3-({N-[(4-methoxy-1H-indol-2-yl)carbonyl]-L-leucyl}amino)-2-oxo-4-[(3S)-2-oxopyrrolidin-3-yl]butyl cyclopropanecarboxylate] the same measures were 128 nM and 42.7 nM. As to `O=C(N[C@@H](CC1CC1)C(=O)N[C@@H](C[C@@H]1CCNC1=O)C(=O)c1nc2ccccc2s1)c1ccccn1` [H, N-((S)-1-(((S)-1-(benzo[d]thiazol-2-yl)-1-oxo-3-((S)-2-oxopyrrolidin-3-yl)propan-2-yl)amino)-3-cyclopropyl-1-oxopropan-2-yl)picolinamide], on SARS-CoV-2 3CL protease, inhibition was half-maximal at 8400 nM (IC50); the Ki (in general, the dissociation constant of the complex between target and ligand, obtained from inhibition or displacement) stood at 3050 nM.

In the case of `COc1cccc2[nH]c(C(=O)N[C@@H](Cc3ccccc3)C(=O)N[C@@H](C[C@@H]3CCNC3=O)C(=O)CO)cc12` [I, N-((S)-1-(((S)-4-hydroxy-3-oxo-1-((S)-2-oxopyrrolidin-3-yl)butan-2-yl)amino)-1-oxo-3-phenylpropan-2-yl)-4-methoxy-1H-indole-2-carboxamide], at SARS-CoV-2 3CL protease, the IC50 came to 375 nM and the Ki was determined as 139 nM. Taken in the same sequence, the figures for `CC(C)(C)C[C@H](NC(=O)c1cc2ccccc2[nH]1)C(=O)N[C@@H](C[C@@H]1CCNC1=O)C(=O)CO` [N-((1S)-1-{[((1S)-3-hydroxy-2-oxo-1-{[(3S)-2-oxopyrrolidin-3-yl]methyl}propyl)amino]carbonyl}-3,3-dimethylbutyl)-1H-indole-2-carboxamide] were 24 nM and 2.81 nM. With `CCC(CC)COC(=O)[C@H](C)N[P@](=O)(OC[C@H]1O[C@@](C#N)(c2ccc3c(N)ncnn23)[C@H](O)[C@@H]1O)Oc1ccccc1` [remdesivir, reference compound], the EC90 (commonly the point of the concentration-response curve where the effect stands at 90%) in the assay on SARS-CoV-2 came out at 168 nM.
